# Experimental data published in US9624243B2, “Heterocyclic compounds and methods of their use” (Novartis AG, priority 2012, dated 2017).
# Molecular target: AT2 receptor (Homo sapiens (Human), UniProt P50052)
# Assay: AT2 Receptor Binding
# Conditions: HEK293 AT2 receptor transient cell membranes, [125I]-CGP42112A
# Protocol: 1. Trypsin-EDTA (for Preparation of 100 mL)
# • Dissolve trypsin in 2% EDTA and PBS completely; sterilize the solution by passing through a […] membrane filter; store at 4° C.
# 2. DMEM Medium (for Preparation of 1 L) • The powder was dissolved into 950 mL of distilled water with gentle stirring until the solution becomes clear. • Add. NaHCO3 1.176 g for DMEM medium. • Adjust pH of medium to 0.2˜0.3 below final working pH using 1 M NaOH or 1 M • HCl. Add slowly with stirring. • Dilute to 1 liter with ddH2O. • Sterilize the medium immediately by filtration. • Store at 4° C.
# 3. TE Buffer • 20 mM Tris-HCl, pH 7.4, • 5 mM EDTA
# 4. Binding Assay Buffer • 50 mM Hepes, pH 7.4 • 5 mM MgCl2 • 1 mM CaCl2 • 0.2% BSA
# 5. Wash Buffer • 50 mM Hepes, pH 7.4 Procedures for HEK293AT2 Receptor Transient Cell Transfection • Cells were plated into 150 mm dish at 50% density for transient transfection. Cells were ready for transfection after overnight incubation (the confluence reaches around 80%). • 75 μL Lipofectamine™2000 diluted in 6.25 mL OptiMEM I Reduced Serum Medium, was mixed gently, and incubated at room temperature for 5 minutes. 50 μg expression plasmid DNA diluted in 6.25 mL OptiMEM I Reduced Serum Medium without serum was mixed gently. • After the 5 minute incubation, the diluted DNA was combined with the diluted Lipofectamine™2000 (total volume is 12.5 mL). The mixture was mixed gently and incubated for 30 minutes at room temperature to allow the DNA-Lipofectamine™2000 complexes to form. • The 12.5 mL DNA-Lipofectamine™2000 complexes were added into the 150 mm dish and mixed gently by rocking the dish back and forth. • The cells were incubated at 37° C. with 5% CO2 for 48 hours. Cells were collected and stored frozen at −80° C. Procedures for HEK293AT2 Receptor Cell Membrane Preparation • Frozen HEK293AT2 receptor (transient transfected) cells were homogenized in ice cold TE buffer for 10s. • The homogenate was centrifuged at 25,000 g for 30 minutes. • The pellet was resuspended in ice cold tissue buffer. • Protein concentrations were determined using Bradford assay method with BSA as standard. • The membrane protein was frozen under −80° C. Compound Preparation
# Solutions of all compounds were prepared bymicroplate liquid handling equipment such as Janus or Precision 2000. Compounds, dissolved in DMSO were stored in a Freezer. Compounds were prepared from 30 mM in 100% DMSO.
# Step 1: Dose Plate Preparation (96 Well Plate)
# • Add the 3 μL [30 mM] compound stock to column 1 on the plate. • Add 15 μL of 100% DMSO to column 1. • Add 10.81 μL of 100% DMSO to column 2-12. • Transfer 5 μL from column 1 into column 2 (half log dilution). • Transfer 5 μL from column 2 into column 3 (half log dilution). • Transfer 5 μL from column 3 into column 4 (half log dilution). • Transfer 5 μL from column 4 into column 5 (half log dilution). • Transfer 5 μL from column 5 into column 6 (half log dilution). • Transfer 5 μL from column 6 into column 7 (half log dilution). • Transfer 5 μL from column 7 into column 8 (half log dilution). • Transfer 5 μL from column 8 into column 9 (half log dilution). • Transfer 5 μL from column 9 into column 10 (half log dilution) • Transfer 5 μL from column 10 into column 11 (half log dilution) • Transfer 5 μL from column 11 into column 12 (half log dilution).
# All the compounds were diluted using Precision 2000 microplate liquid handling equipment. The top concentration of compound was 5 mM with 100% DMSO.
# Step 2: Working Plate Preparation (96 Well Plate)
# • Compounds were diluted 50-fold with buffer. • 49 μL buffer was added to the well of 96 well plate. • 1 μL compound solution from dose plate was transferred to the corresponding well of working plate. • The top concentration of compound was 100 μM with 2% DMSO. Step 3: Assay Plate Preparation (96 Well Plate)
# 15 μL of compound solution was transferred from each well of working plate to the well of assay plate by Janus.
# Sequence of AT2 receptor (P50052 whole entry, species assumed): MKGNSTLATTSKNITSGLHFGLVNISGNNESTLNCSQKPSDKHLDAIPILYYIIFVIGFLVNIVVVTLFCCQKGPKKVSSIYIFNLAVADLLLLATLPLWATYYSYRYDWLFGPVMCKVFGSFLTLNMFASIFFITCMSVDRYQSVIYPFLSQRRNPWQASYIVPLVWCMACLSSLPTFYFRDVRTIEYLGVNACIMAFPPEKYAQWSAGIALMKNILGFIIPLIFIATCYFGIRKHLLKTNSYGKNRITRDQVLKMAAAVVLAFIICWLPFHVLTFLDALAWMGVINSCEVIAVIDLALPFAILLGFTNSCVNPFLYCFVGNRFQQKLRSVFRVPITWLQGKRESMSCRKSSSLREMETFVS
row,Compound,IC50 [µM]
1,"O=C(O)[C@@H]1C[C@H](OC[C@@H]2C[C@H]2c2ccccc2)CN1C(=O)C(c1ccccc1)c1ccccc1 (mixture of isomers) [Compound 16, (2S,4S)-1-(2,2-diphenylacetyl)-4-(((1R,2R)-2-phenylcyclopropyl)methoxy)pyrrolidine-2-carboxylic acid and (2S,4S)-1-(2,2-diphenylacetyl)-4-(((1S,2S)-2-phenylcyclopropyl)methoxy)pyrrolidine-2-carboxylic acid]",6.65
2,"O=C(O)[C@@H]1C[C@H](OC[C@@H]2C[C@@H]2c2ccccc2)CN1C(=O)C(c1ccccc1)c1ccccc1 (mixture of isomers) [Compound 17, (2S,4S)-1-(2,2-diphenylacetyl)-4-(((1R,2S)-2-phenylcyclopropyl)methoxy)pyrrolidine-2-carboxylic acid and (2S,4S)-1-(2,2-diphenylacetyl)-4-(((1S,2R)-2-phenylcyclopropyl)methoxy)pyrrolidine-2-carboxylic acid]",3.97
3,"CN(CCCc1ccccc1)[C@@H]1CN(C(=O)C(c2ccccc2)c2ccccc2)C[C@H]1C(=O)O (mixture of isomers) [Compound 67, (3R,4S)-1-(2,2-diphenylacetyl)-4-(methyl(3-phenylpropyl)amino)pyrrolidine-3-carboxylic acid and (3S,4R)-1-(2,2-diphenylacetyl)-4-(methyl(3-phenylpropyl)amino)pyrrolidine-3-carboxylic acid]",3.67
4,"O=C(O)[C@@H]1[C@@H](OCCCc2ccccc2)CN1C(=O)C(c1ccccc1)c1ccccc1 (mixture of isomers) [Compound 142, (2S,3S)-1-(2,2-diphenylacetyl)-3-(3-phenylpropoxy)-azetidine-2-carboxylic acid and (2R,3R)-1-(2,2-diphenylacetyl)-3-(3-phenylpropoxy)-azetidine-2-carboxylic acid]",0.993
5,"O=C(O)[C@H]1[C@H](OCCCc2ccccc2)CN1C(=O)C(c1ccccc1)c1ccccc1 (mixture of isomers) [Compound 143, (2R,3R)-3-(3-phenylpropoxy)-1-(2,2-diphenylacetyl)-azetidine-2-carboxylic acid and (2S,3S)-3-(3-phenylpropoxy)-1-(2,2-diphenylacetyl)-azetidine-2-carboxylic acid]",0.372
6,"O=C(O)[C@@H]1C[C@H](N2CCCC2Cc2ccccc2)CN1C(=O)C(c1ccccc1)c1ccccc1 (single isomer, unassigned) [Compound 61-A, (3′S,5′S)-2-benzyl-V-(2,2-diphenylacetyl)-[1,3′-bipyrrolidine]-5′-carboxylic acid]",0.0833
7,"O=C(O)[C@@H]1C[C@H](N2CCCC2Cc2ccccc2)CN1C(=O)C(c1ccccc1)c1ccccc1 (single isomer, unassigned) [Compound 61-B, (3′S,5′S)-2-benzyl-V-(2,2-diphenylacetyl)-[1,3′-bipyrrolidine]-5′-carboxylic acid]",0.107
8,"O=C(O)[C@@H]1C[C@H](N2CCCCC2Cc2ccccc2)CN1C(=O)C(c1ccccc1)c1ccccc1 (single isomer, unassigned) [Compound 70-A]",0.0491
9,"O=C(O)[C@@H]1C[C@H](N2CCCCC2Cc2ccccc2)CN1C(=O)C(c1ccccc1)c1ccccc1 (single isomer, unassigned) [Compound 70-B]",1.34
10,"O=C(O)[C@@H]1C[C@H](OCc2ccccc2)CN1C(=O)C(c1ccccc1)c1ccccc1 [Compound 2, (2S,4S)-4-(benzyloxy)-1-(2,2-diphenylacetyl)pyrrolidine-2-carboxylic acid]",0.114
11,"O=C(O)[C@@H]1C[C@@H](OCc2ccccc2)CN1C(=O)C(c1ccccc1)c1ccccc1 [Compound 3, (2S,4R)-4-(benzyloxy)-1-(2,2-diphenylacetyl)pyrrolidine-2-carboxylic acid]",0.193
12,"O=C(O)C1Cc2c(OCc3ccccc3)cccc2N1C(=O)C(c1ccccc1)c1ccccc1 (stereo not shown) [Compound 15, 4-(benzyloxy)-1-(2,2-diphenylacetyl)indoline-2-carboxlic acid]",0.0545
13,"O=C(O)[C@@H]1C[C@H](N2CCN(c3ccccc3)CC2)CN1C(=O)C(c1ccccc1)c1ccccc1 [Compound 23, (2S,4S)-1-(2,2-diphenylacetyl)-4-(4-phenylpiperazine)pyrrolidine-2-carboxylic acid]",0.29
14,"O=C(O)[C@@H]1C[C@H](Oc2ccccc2Oc2ccccc2)CN1C(=O)C(c1ccccc1)c1ccccc1 [Compound 35, (2S,4S)-1-(2,2-diphenylacetyl)-4-(2-phenoxyphenoxy)-pyrrolidine-2-carboxylic acid]",0.54
15,"O=C(O)[C@@H]1C[C@H](OCC#Cc2ccccc2)CN1C(=O)C(c1ccccc1)c1ccccc1 [Compound 36, (2S,4S)-1-(2,2-diphenylacetyl)-4-((3-phenylprop-2-yn-1-yl)-oxy)pyrrolidine-2-carboxylic acid]",1.66
16,"O=C(O)[C@@H]1C[C@H](NCCc2ccccc2)CN1C(=O)C(c1ccccc1)c1ccccc1 [Compound 46, (2S,4S)-1-(2,2-diphenylacetyl)-4-(phenethylamino)-pyrrolidine-2-carboxylic acid]",2.26
17,"O=C(O)[C@@H]1C[C@H](N2CCC[C@@H](c3ccccc3)C2)CN1C(=O)C(c1ccccc1)c1ccccc1 [Compound 48, (2S,4S)-1-(2,2-diphenylacetyl)-4-((S)-3-phenylpiperidine-1-yl)pyrrolidine-2-carboxylic acid]",0.0894
18,"O=C(O)[C@@H]1C[C@H](N2CCC[C@H](c3ccccc3)C2)CN1C(=O)C(c1ccccc1)c1ccccc1 [Compound 49, (2S,4S)-1-(2,2-diphenylacetyl)-4-((R)-3-phenylpiperidin-1-yl)pyrrolidine-2-carboxylic acid]",0.0588
19,CN(C)S(=O)(=O)NC(=O)[C@@H]1C[C@H](OCCCc2ccccc2)CN1C(=O)C(c1ccccc1)c1ccccc1 [Compound 50],0.0673
20,"O=C(O)[C@@H]1C[C@H](N2CCCC(Cc3ccccc3)C2)CN1C(=O)C(c1ccccc1)c1ccccc1 (stereo partly drawn) [Compound 53, (2S,4S)-4-(3-benzylpiperidin-1-yl)-1-(2,2-diphenylacetyl)-pyrrolidine-2-carboxylic acid]",0.0439
21,O=C(O)[C@@H]1C[C@H](COCc2ccccc2)CN1C(=O)C(c1ccccc1)c1ccccc1 [Compound 54],0.155
22,"O=C(O)[C@@H]1C[C@H](CCOCc2ccccc2)CN1C(=O)C(c1ccccc1)c1ccccc1 [Compound 55, (2S,4R)-4-(2-(benzyloxy)ethyl)-1-(2,2-diphenylacetyl)-pyrrolidine-2-carboxylic acid]",0.386
23,O=C(O)[C@@H]1C[C@H](c2ncc(-c3ccccc3)o2)CN1C(=O)C(c1ccccc1)c1ccccc1 [Compound 56],0.315
24,"O=C(O)[C@@H]1C[C@H](CS(=O)(=O)CCc2ccccc2)CN1C(=O)C(c1ccccc1)c1ccccc1 [Compound 58, (2S,S)-1-(2,2-diphenylacetyl)-4-((phenethylsulfonyl)methyl)pyrrolidine-2-carboxylic acid]",3.05
25,"CN(CCCc1ccccc1)[C@H]1C[C@@H](C(=O)O)N(C(=O)C(c2ccccc2)C2CCCCC2)C1 (stereo partly drawn) [Compound 62, (2S,4S)-1-(2-cyclohexyl-2-phenylacetyl)-4-(methyl(3-phenylpropyl)amino)pyrrolidine-2-carboxylic acid]",0.54
